Results as given in US6399380B1, “Native-state histoculturing skin extracellular support” (Anti-Cancer, Inc., priority 1991, dated 2002).

Columns and labels:
histocultured mouse skin = tested on: histocultured mouse skin
Procedure: Samples of skin having an external surface area of about 10 mm^2 and a thickness of about one to two mm were excised from an athymic nude mouse and placed on a GELFOAM™ matrix immersed in Eagle's MEM containing about 0.2 mg/ml of gentamycin and about 10% (v/v) fetal bovine serum. Prior to use the matrix was soaked in the medium for four hours at 37° C. to equilibrate the matrix in the medium.
The skin samples were maintained on the matrix in the medium at a temperature of about 37° C. in a gassed incubator under a mixture of 95% air and 5% CO2. Viability was assessed as the uptakes of an indicator specific for viable cells (BCECF-AM) and an indicator specific for dead cells (propidium iodide, PI), or as the uptake of [^3H]-thymidine.
The fluorescent dye indicators BCECF-AM and PI (Molecular Probes, Eugene, Oreg.) were added directly to the medium at a final concentration of 5 micromolar. Incorporation of the dyes was microscopically evaluated about 30 min following addition of the dyes to the medium by optical scanning using an MRC-600 Confocal Imaging System (Bio-Rad, Richmond, Calif.) mounted on a Nikon Epithet equipped with a 10× Plane objective. Samples were observed using an optical section of about 4 microns.
Skin samples from athymic nude mice were cultured according to the method of Example 1. Viability was assessed before and after the addition of putative toxins using BCECF-AM and [^3H]-thymidine as indicators specific for viable cells and PI as an indicator specific for dead cells. The uptake of these indicators was determined according to the methods of Example 1.
An initial assessment of viability was made 2 days after initiation of the skin culture using BCECF-AM and PI. Immediately following this initial assessment, various concentrations of the toxins ethanol, doxorubicin or sodium hypochlorite were contacted with the skin samples. The final concentrations of the toxins varied from about 0.5% to about 70% (v/v) for ethanol, from about 29 to about 725 mgs/ml for doxorubicin and from about 0.6% to about 60.0% (v/v) for sodium hypochlorite.
The skin samples were contacted with ethanol, doxorubicin and sodium hypochlorite for about 5 min., for about 24 hours and for about 2 hours respectively. Following these contact times, the toxin-containing medium was replaced with fresh, non-toxin-containing medium and the skin samples reassessed for viability using BCECF-AM and PI Viability was assessed in the same region of the skin sample before and after contact with the toxin.
In this study, toxicity was expressed as a percent of killed cells. The fraction of killed cells (PI-positive cells) with respect to total cells (PI-positive (red) plus BCECF-AM-positive (green) cells) in treated cultures is measured with confocal fluorescence scanning microscopy and is compared to untreated controls to determine cytotoxicity. The percent of killed cells is expressed as the number of red cells after treatment minus the number of red cells before treatment, divided by the total number of cells (green cells after treatment plus red cells after treatment).
The effects of doxorubicin and sodium hypochlorite on skin toxicity were determined in an identical manner to that described above for ethanol.

dorsal skin of mice = conditions: mouse, in vivo
Procedure: The in vivo assessment of toxicity was determined using a standard skin irritation test as set forth below.
Small pieces of gauze paper (about 1.5 cm^2 size), which have been soaked in different concentrations of sodium hypochlorite, were tightly put on 3 different sites on the dorsal surface of the mice. Skin sites were scored on a 1 to 4 scale for […] and edema ½ hour and 1 hour after removal of the sodium hypochlorite. The primary irritation index (PII) for each concentration of sodium hypochlorite was derived from the following formula: […]

[1] = tested on: dermal, epidermal and follicle cells of histocultured mouse skin; test: Skin toxicity assay: [3H]-thymidine uptake (percent cell proliferation), autoradiography; format: cell-based; conditions: FIG. 6
Procedure: [^3H]-Thymidine was added directly to the medium at a final concentration of 4 μCI/ml. Skin samples were maintained in the thymidine-containing medium for 3 days. After the 3 days, the skin cultures were washed with phosphate-buffered saline, pH 7.0, placed in histology capsules and fixed in 10% (v/v) formalin. The fixed skin cultures were then dehydrated, embedded in paraffin, sectioned and placed on slides by standard methods well known to those of skill in the histology art. The slides were deparaffinized, coated with Kodak NTB-2 emulsion, exposed for 5 days and developed. […]
In addition, skin samples contacted with doxorubicin were assessed for viability using the uptake of [^3H]-thymidine measured after 24 hr of toxin contact.
In this study, toxicity was expressed as percent cell proliferation. Percent cell proliferation was calculated as the ratio of, (1) percentage of cells labeled with [^3H]-thymidine to total cells in doxorubicin treated samples compared to (2) the percentage of [^3H]-thymidine labeled cells to total cells in control, untreated skin samples.

`OCl` [sodium hypochlorite] was tested, and the “threshold of toxicity (percent of killed cells)” value (histocultured mouse skin; athymic nude, mouse) was “about 0.6%” and the “threshold of toxicity (primary irritation index)” value (dorsal skin of mice) was “about 0.6%”.

In the case of `COc1cccc2c1C(=O)c1c(O)c3c(c(O)c1C2=O)C[C@@](O)(C(=O)CO)C[C@@H]3O[C@H]1C[C@H](N)[C@H](O)[C@H](C)O1` [doxorubicin], the “percent cell proliferation ([3H]-thymidine labeled cells relative to control)” value ([1]; 24 hour exposure to doxorubicin) is reported as “dose-dependent decrease in cell proliferation”, the “cell type in which toxicity was most pronounced” value ([1]; 24 hour exposure, dermal, epidermal and follicle cells compared) is reported as “most pronounced in hair follicle cells” and the “toxicity (percent of killed cells) as a function of concentration” value (histocultured mouse skin; doxorubicin about 29 to about 725 mgs/ml, 24 hours, FIG. 5) is reported as “relatively proportional to the concentration of doxorubicin”.

In the case of `CCO` [ethanol], the “viability of skin sample after vs before treatment (live/dead staining)” value (histocultured mouse skin; 0.5% (v/v) or 5.0% ethanol, about 5 min, skin histocultured 2 days, FIG. 3) is reported as “a large number of cells died”, the “relative toxicity (loss in viability)” value (histocultured mouse skin; 5.0% vs 0.5% ethanol, about 5 min, FIG. 3) is reported as “more toxic (a greater loss in viability) than was 0.5% ethanol” and the loss of viability (histocultured mouse skin; 30%, 50% and 70% ethanol, data not shown) is reported as “increasing losses of viability above the extent of losses observed using 5% ethanol”. The “percent of killed cells (toxicity) as a function of concentration” value (histocultured mouse skin; ethanol about 0.5% to about 70% (v/v), 5 minutes, skin histocultured two days, FIG. 4) was “increases as the concentration of ethanol increases”.
